Drawing on ChEMBL document CHEMBL5291721, “A preclinical secondary pharmacology resource illuminates target-adverse drug reaction associations of marketed drugs” (Nat Commun, 2023), this text covers AC50 for 15 compounds.

The target in test [1] is Beta-2 adrenergic receptor (Homo sapiens, UniProt P07550). The class given is functional, cell-based.
Test [2] deals with T1, Androgen receptor (Rattus norvegicus, UniProt P15207).
T1 sequence (P15207 whole entry): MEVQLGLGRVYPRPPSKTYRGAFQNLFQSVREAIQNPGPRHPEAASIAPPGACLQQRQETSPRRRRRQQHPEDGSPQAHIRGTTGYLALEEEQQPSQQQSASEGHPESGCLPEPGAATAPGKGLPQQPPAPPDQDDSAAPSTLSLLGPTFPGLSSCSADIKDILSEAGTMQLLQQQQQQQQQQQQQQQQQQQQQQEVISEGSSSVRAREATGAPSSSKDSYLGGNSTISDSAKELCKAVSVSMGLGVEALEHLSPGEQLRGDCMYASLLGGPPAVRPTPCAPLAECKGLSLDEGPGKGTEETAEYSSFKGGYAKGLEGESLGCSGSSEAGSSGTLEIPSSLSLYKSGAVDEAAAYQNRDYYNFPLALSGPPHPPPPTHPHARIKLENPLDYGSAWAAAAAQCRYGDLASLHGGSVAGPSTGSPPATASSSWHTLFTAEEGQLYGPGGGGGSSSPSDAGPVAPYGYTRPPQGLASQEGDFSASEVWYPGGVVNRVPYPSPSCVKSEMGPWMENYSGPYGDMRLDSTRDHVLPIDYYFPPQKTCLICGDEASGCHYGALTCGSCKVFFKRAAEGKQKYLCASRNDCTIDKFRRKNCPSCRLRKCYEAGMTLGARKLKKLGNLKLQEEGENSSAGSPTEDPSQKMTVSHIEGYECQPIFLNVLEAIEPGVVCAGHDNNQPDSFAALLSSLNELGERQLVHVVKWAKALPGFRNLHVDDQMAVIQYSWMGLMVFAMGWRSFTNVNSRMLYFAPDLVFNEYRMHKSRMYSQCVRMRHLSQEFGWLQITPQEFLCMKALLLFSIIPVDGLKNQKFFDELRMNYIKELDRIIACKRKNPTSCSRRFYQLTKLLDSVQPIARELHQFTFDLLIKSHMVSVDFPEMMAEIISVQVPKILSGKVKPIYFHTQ
The class given is functional.

Test [3] concerns the target T2, Muscarinic acetylcholine receptor M2 (Homo sapiens, UniProt P08172).
T2 sequence (P08172 whole entry): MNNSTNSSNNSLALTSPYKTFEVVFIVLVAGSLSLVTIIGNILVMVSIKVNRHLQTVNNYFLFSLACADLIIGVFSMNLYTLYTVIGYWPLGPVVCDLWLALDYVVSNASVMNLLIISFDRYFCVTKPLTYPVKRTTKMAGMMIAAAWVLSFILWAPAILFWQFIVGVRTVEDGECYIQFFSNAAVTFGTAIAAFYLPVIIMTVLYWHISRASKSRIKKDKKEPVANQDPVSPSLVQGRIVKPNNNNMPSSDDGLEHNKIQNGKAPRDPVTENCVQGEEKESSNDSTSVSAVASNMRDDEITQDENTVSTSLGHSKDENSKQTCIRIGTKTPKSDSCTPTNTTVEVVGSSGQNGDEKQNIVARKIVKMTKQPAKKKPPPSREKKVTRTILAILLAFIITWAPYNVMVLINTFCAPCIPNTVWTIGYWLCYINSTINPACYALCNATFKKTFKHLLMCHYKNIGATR
The test is classed as functional, cell-based.

Test [4] has as its target T3, Cannabinoid receptor 1 (Homo sapiens, UniProt P21554). The test is classed as functional, cell-based.
Test [5] concerns the target Gamma-aminobutyric acid receptor subunit alpha-1 (Rattus norvegicus, UniProt P62813). The class given is functional.
Test [6] deals with Histamine H2 receptor (Homo sapiens, UniProt P25021). The test is classed as functional, cell-based.
In test [7] the target is 5-hydroxytryptamine receptor 2A (Homo sapiens, UniProt P28223). The class given is functional, cell-based.
Test [8] deals with Sodium-dependent serotonin transporter (Homo sapiens, UniProt P31645).
Test [9] has as its target D(3) dopamine receptor (Homo sapiens, UniProt P35462).
In test [10] the target is T4, Alpha-1A adrenergic receptor (Homo sapiens, UniProt P35348).
T4 sequence (P35348 whole entry): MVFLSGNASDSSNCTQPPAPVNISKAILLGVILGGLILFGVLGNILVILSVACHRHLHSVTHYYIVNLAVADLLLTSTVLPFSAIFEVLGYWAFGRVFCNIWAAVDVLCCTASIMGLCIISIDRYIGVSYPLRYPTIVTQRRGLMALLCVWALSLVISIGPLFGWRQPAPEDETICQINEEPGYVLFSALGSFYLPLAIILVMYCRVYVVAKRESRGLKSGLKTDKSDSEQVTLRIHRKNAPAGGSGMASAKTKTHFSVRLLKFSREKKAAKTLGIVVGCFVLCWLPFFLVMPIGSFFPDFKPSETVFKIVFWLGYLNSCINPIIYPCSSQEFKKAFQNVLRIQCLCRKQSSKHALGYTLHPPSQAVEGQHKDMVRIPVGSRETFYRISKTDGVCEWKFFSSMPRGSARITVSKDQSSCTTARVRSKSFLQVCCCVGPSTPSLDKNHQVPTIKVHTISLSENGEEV

Test [11] addresses T3, Cannabinoid receptor 1.
Test [12] has as its target Melanocortin receptor 4 (Homo sapiens, UniProt P32245).
Test [13] has as its target Mu-type opioid receptor (Homo sapiens, UniProt P35372).
Also: assay procedure not described here.

Gamma-aminobutyric acid receptor subunit alpha-1, sequence (P62813 whole entry): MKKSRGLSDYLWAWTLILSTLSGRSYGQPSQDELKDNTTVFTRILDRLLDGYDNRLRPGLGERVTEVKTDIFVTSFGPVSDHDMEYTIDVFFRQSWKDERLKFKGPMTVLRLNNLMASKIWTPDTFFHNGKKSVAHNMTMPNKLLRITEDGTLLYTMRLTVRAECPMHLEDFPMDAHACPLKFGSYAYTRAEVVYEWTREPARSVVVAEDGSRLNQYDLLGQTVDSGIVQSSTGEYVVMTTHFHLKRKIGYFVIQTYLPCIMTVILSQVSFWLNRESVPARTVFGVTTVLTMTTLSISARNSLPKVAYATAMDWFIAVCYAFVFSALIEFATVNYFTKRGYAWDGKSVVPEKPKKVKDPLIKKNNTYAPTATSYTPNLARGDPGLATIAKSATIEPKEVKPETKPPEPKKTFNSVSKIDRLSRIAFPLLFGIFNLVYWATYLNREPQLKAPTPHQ
Histamine H2 receptor, sequence (P25021 whole entry): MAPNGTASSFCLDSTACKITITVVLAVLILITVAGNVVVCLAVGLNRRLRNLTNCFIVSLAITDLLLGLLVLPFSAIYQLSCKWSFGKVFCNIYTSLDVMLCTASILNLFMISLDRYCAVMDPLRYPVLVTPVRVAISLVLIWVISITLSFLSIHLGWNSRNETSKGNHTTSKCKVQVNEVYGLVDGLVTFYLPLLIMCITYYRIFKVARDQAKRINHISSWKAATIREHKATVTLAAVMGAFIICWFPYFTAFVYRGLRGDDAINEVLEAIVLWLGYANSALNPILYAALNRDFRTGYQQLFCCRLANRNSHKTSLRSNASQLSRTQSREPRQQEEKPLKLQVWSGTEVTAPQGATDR
Beta-2 adrenergic receptor, sequence (P07550 whole entry): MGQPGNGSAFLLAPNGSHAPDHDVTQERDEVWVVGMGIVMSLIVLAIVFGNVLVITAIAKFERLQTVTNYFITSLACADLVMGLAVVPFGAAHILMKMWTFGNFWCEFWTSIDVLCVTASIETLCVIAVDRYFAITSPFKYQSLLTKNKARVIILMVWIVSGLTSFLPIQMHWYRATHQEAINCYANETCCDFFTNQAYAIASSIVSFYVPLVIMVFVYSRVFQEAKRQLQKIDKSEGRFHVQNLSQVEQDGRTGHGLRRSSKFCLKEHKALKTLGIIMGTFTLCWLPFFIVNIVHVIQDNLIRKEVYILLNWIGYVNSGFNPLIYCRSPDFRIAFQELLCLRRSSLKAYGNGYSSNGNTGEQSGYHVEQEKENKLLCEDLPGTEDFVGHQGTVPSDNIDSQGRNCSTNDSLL
Sodium-dependent serotonin transporter, sequence (P31645 whole entry): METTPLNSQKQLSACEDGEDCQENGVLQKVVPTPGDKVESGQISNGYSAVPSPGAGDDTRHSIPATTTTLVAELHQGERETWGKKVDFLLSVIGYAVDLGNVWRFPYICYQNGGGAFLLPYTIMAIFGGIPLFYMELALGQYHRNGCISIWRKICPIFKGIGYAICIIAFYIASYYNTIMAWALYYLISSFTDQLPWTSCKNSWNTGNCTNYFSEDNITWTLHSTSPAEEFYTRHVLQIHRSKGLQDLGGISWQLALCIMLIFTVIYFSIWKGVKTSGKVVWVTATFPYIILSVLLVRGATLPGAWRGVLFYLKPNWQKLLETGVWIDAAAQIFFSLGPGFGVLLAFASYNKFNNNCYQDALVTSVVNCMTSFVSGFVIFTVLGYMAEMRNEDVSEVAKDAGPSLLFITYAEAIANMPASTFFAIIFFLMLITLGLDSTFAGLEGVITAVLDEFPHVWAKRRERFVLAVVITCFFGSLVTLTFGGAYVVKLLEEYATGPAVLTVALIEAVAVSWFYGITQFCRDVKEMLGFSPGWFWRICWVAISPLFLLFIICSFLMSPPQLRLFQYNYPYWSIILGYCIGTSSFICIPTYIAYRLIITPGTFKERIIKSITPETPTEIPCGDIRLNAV
Mu-type opioid receptor, sequence (P35372 whole entry): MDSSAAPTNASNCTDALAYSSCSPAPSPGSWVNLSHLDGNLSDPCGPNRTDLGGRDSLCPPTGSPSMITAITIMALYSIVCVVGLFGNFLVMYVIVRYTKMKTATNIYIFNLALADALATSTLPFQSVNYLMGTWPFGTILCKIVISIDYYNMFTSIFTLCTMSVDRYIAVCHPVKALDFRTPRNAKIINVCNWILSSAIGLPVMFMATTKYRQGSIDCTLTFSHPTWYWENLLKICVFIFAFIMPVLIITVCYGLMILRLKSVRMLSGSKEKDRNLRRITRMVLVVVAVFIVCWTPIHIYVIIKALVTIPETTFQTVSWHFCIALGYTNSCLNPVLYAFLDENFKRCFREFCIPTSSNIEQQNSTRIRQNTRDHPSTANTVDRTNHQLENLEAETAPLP
Melanocortin receptor 4, sequence (P32245 whole entry): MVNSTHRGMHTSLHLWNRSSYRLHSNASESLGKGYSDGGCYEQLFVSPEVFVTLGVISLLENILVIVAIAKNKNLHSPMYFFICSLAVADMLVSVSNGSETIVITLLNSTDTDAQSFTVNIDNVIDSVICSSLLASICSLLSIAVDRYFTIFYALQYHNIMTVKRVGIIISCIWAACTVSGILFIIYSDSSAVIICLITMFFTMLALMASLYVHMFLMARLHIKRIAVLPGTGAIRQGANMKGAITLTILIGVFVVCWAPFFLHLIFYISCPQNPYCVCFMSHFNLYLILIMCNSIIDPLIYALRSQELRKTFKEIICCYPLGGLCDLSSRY
D(3) dopamine receptor, sequence (P35462 whole entry): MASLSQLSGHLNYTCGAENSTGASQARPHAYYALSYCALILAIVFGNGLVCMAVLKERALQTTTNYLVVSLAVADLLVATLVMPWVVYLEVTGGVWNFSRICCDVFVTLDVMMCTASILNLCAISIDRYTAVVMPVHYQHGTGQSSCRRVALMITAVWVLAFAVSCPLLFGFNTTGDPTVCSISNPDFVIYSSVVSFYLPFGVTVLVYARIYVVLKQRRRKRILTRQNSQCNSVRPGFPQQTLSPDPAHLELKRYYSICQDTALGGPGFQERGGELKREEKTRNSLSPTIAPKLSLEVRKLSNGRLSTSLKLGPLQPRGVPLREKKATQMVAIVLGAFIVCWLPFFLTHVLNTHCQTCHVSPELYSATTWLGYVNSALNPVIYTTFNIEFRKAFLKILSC
5-hydroxytryptamine receptor 2A, sequence (P28223 whole entry): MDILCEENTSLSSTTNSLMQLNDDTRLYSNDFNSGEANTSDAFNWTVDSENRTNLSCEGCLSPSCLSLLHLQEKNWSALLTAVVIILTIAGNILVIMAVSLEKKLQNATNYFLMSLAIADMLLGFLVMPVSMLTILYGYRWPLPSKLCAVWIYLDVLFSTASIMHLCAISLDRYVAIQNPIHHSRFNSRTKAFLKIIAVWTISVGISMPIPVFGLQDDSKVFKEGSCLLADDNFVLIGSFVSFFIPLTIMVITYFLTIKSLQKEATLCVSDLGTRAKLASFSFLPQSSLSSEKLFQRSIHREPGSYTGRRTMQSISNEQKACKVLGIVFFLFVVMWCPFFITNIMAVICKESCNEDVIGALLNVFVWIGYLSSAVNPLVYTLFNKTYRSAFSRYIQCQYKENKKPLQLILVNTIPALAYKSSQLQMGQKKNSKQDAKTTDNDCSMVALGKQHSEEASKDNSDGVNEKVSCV
T3 sequence (P21554 whole entry): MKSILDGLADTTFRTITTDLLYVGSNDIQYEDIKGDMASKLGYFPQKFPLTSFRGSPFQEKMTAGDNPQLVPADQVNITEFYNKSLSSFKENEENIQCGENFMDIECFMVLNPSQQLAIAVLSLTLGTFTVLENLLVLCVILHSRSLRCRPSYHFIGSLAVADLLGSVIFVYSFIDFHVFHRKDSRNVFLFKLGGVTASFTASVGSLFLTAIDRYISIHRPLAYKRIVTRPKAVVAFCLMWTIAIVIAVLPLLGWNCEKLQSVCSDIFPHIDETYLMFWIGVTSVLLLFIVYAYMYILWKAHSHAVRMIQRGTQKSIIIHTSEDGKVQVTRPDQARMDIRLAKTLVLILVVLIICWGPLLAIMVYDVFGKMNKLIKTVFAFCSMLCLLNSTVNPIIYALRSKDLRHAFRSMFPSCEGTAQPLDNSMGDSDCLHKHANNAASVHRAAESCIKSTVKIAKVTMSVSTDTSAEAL

As usually defined, the AC50 is the concentration giving half of the maximal activity seen. Higher therefore signals weaker potency. Take `N#Cc1ccccc1-c1cc(-c2ccccn2)cn(-c2ccccc2)c1=O`: the AC50 in test [1], in [2], in [3], in test [4], in test [5] and in test [6] was > 30 µM each time. The AC50 in test [7], in [8] and in [9] was > 30 µM throughout.

As to `C=C[C@@]1(C)CC(=O)[C@]2(O)[C@@]3(C)[C@@H](O)CCC(C)(C)[C@@H]3[C@H](OC(=O)CCN(C)C)[C@H](OC(C)=O)[C@@]2(C)O1`, the AC50 in [2], in [3], in [4], in test [5], in test [7] and in test [8] was > 30 µM in each case. In test [9], the AC50 is > 30 µM.

Turning to `Nc1ccc(C(=O)O)c(O)c1` [AMINOSALICYLIC ACID], the AC50 in test [1], in [2], in test [3], in test [4], in test [5] and in [6] was > 30 µM throughout. In addition, the AC50 in test [9] is > 30 µM.

For the compound `COc1cc(OC)c(C(=O)CCCN2CCCC2)c(OC)c1` [BUFLOMEDIL], the AC50 in [2], in test [3], in test [4], in [5], in test [6] and in [9] was > 30 µM throughout.

For the compound `CCC(C)(Oc1ccc(C2(c3ccc(OC(C)(CC)C(=O)O)cc3)CCCCC2)cc1)C(=O)O` (stereo not drawn) [CLINOFIBRATE], the AC50 in test [2], in [3], in test [4], in test [5], in test [6] and in test [7] was > 30 µM throughout. Besides, the concentration at half-maximal activity (AC50) in test [8] and in test [9] was > 30 µM each time.

On to `C[C@@H]1C[C@H]2[C@@H]3C[C@H](F)C4=CC(=O)C=C[C@]4(C)[C@@]3(F)[C@@H](O)C[C@]2(C)[C@H]1C(=O)CO` [DIFLUCORTOLONE], for which the AC50 in [2] is 2.6 µM; in [7], > 30 µM; in [8], > 30 µM; in [9], > 30 µM.

For the compound `CCCCC[C@H](O)/C=C/[C@H]1[C@H](O)CC(=O)[C@@H]1C/C=C\CCCC(=O)O` [DINOPROSTONE], the AC50 in test [2], in [3], in test [4], in test [5], in [6] and in test [7] was > 30 µM in each case. Moreover, the AC50 in test [8] and in [9] was > 30 µM in each case.

Turning to `O=C(O)c1ccccc1Nc1cccc(C(F)(F)F)c1` [FLUFENAMIC ACID], the AC50 in test [10] is 1 µM; in [1], > 30 µM; in test [3], > 10 µM; in test [4], > 30 µM; in [11], > 10 µM; in test [5], > 10 µM. The AC50 in [6] is > 10 µM; in test [7], > 30 µM; in test [12], > 30 µM; in [8], > 30 µM; in test [13] it was > 30 µM; in test [9] it was 3.5 µM.

For `CC1(C)C(/C=C/C=C/C=C/C=C2\N(CCCCS(=O)(=O)O)c3ccc4ccccc4c3C2(C)C)=[N+](CCCCS(=O)(=O)[O-])c2ccc3ccccc3c21` [INDOCYANINE GREEN ACID FORM], the AC50 in test [1] was > 30 µM; in test [2], > 30 µM; in test [4], 9.3 µM; in [5] it was 18 µM; in test [6], 24 µM; in test [9] it was 8.7 µM.

On to `CC(C)OC(=O)C(C(=O)OC(C)C)=C1SC=CS1` [MALOTILATE], for which the AC50 in test [2] was > 30 µM; in test [3], > 30 µM; in [4] it was > 30 µM; in [5], 15 µM; in [6], > 30 µM; in test [7], > 30 µM. For the same compound, the concentration at half-maximal activity (AC50) in test [8] and in test [9] was > 30 µM each time.

Take `CC(=O)Nc1c(I)c(C(=O)N[C@H]2C(O)O[C@H](CO)[C@@H](O)[C@@H]2O)c(I)c(N(C)C(C)=O)c1I` (stereo partly drawn) [METRIZAMIDE]: the AC50 in [10] was > 10 µM; in test [3], > 10 µM; in [4], > 30 µM; in [11], > 10 µM; in test [5], > 10 µM; in test [6] it was > 10 µM. Also, the AC50 in test [7] was > 10 µM; in test [12] it was > 10 µM; in test [8] it was > 10 µM; in [13], > 30 µM; in [9] it was > 30 µM.

`NC(=O)CCC/N=C(\c1ccc(Cl)cc1)c1cc(F)ccc1O` [PROGABIDE]: the AC50 in [10] was > 10 µM; in [1], > 30 µM; in test [3] it was > 10 µM; in test [4] it was > 30 µM; in test [11] it was > 10 µM; in [5], > 10 µM. In addition, the AC50 is > 10 µM in test [6]; > 10 µM in test [7]; > 10 µM in [12]; > 10 µM in test [8]; > 30 µM in test [13]; > 30 µM in test [9].

For the compound `CCN(CC)CC(=O)Oc1ccc(NC(C)=O)cc1` [PROPACETAMOL], the AC50 in [2], in test [3], in [4], in test [5], in [6] and in test [7] was > 30 µM each time. For the same compound, the AC50 in test [8] and in test [9] was > 30 µM throughout.

Regarding `Cc1cc2nc3c(=O)[nH]c(=O)nc-3n(C[C@H](O)[C@H](O)[C@H](O)COP(=O)(O)O)c2cc1C` [RIBOFLAVIN 5'-PHOSPHATE], the AC50 was 2.9 µM in test [1]; > 30 µM in test [2]; > 30 µM in test [5]; > 30 µM in test [6]; > 30 µM in test [8]; > 30 µM in [9].

Regarding `C=CC(N)CCC(=O)O` (stereo not drawn) [VIGABATRIN], the AC50 in [10] is > 10 µM; in test [3], > 10 µM; in [4], > 30 µM; in [11], > 10 µM; in [5], > 10 µM; in test [6], > 10 µM. Moreover, the AC50 in [7] was > 10 µM; in [12], > 10 µM; in test [8] it was 12.2 µM; in test [13], > 30 µM; in test [9], > 30 µM.
